The molecules below were run on Radical scavenging activity (assay: Antioxidant activity assessed as DPPH free radical scavenging activity after 30 mins in dark by spectrophotometry).
Type: functional

In order of falling IC50:
1. Cc1cc(C(C)(C)C)c(O)c(C(C)(C)C)c1 [BUTYLATED HYDROXYTOLUENE]  62.5 µM
2. O=C(/C=C/c1ccc(O)c(O)c1)O[C@@H]1C[C@](O)(C(=O)O)C[C@@H](O)[C@H]1O [CHLOROGENIC ACID]  20 µM
3. COC(=O)C1(O)C[C@@H](O)[C@@H](O)[C@H](OC(=O)/C=C/c2ccc(O)c(O)c2)C1 (stereo not given in full)  18.6 µM
4. COC(=O)C1(O)C[C@@H](O)[C@@H](O)[C@H](OC(=O)/C=C\c2ccc(O)c(O)c2)C1 (stereo not given in full)  18.5 µM
5. O=C(O[C@H]1[C@H]([C@@]2(c3ccc(O)c(O)c3)CC[C@H](Cc3ccc(O)c(O)c3)C(=O)O2)OC[C@@H]1O)c1cc(O)cc(O)c1 [CHIMARRHININ]  7.5 µM

Source: ChEMBL document CHEMBL1765041, “An unprecedented neolignan skeleton from Chimarrhis turbinata” (J Nat Prod, 2011)
